From ChEMBL document CHEMBL5291721, “A preclinical secondary pharmacology resource illuminates target-adverse drug reaction associations of marketed drugs” (Nat Commun, 2023) come the findings set out here.

Among the targets are Adenosine receptor A2a (Homo sapiens, UniProt P29274); D(3) dopamine receptor (Homo sapiens, UniProt P35462); Motilin receptor (Homo sapiens, UniProt O43193).
Test [1] concerns the target Growth hormone secretagogue receptor type 1 (Homo sapiens, UniProt Q92847).
Test [2] deals with cGMP-inhibited 3',5'-cyclic phosphodiesterase 3A (Homo sapiens, UniProt Q14432). It is filed as functional.
Test [3] deals with Delta-type opioid receptor (Homo sapiens, UniProt P41143).
The target in test [4] is T1, 5-hydroxytryptamine receptor 2C (Homo sapiens, UniProt P28335).
T1 sequence (P28335 whole entry): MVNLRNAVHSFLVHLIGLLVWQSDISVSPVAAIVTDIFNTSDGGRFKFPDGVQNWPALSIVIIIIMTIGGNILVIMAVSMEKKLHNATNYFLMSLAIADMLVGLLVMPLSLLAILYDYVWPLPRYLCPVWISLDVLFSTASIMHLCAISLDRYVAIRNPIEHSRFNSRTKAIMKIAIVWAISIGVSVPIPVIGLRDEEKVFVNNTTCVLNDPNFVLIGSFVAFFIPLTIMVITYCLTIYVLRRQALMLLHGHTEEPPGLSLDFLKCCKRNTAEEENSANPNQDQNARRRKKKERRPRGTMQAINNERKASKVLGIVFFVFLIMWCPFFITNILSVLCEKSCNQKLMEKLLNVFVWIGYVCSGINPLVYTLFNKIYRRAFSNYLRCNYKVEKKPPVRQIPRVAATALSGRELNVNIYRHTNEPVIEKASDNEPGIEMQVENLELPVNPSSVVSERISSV

Test [5] addresses T2, Alpha-2A adrenergic receptor (Homo sapiens, UniProt P08913).
T2 sequence (P08913 whole entry): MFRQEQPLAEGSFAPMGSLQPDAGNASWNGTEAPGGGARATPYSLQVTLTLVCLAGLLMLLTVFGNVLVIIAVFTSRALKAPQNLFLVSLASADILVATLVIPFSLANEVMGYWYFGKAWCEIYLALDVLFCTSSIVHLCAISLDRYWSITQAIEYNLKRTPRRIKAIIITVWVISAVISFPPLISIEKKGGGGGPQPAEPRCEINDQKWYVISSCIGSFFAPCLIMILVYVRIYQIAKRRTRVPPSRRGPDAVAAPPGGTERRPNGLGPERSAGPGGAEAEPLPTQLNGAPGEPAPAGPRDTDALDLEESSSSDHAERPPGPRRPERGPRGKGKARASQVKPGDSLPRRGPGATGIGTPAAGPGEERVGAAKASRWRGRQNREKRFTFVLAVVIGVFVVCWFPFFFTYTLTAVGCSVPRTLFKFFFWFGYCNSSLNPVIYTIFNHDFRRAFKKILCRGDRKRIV
It is filed as functional, cell-based.

Test [6] has as its target T3, 5-hydroxytryptamine receptor 1A (Homo sapiens, UniProt P08908).
T3 sequence (P08908 whole entry): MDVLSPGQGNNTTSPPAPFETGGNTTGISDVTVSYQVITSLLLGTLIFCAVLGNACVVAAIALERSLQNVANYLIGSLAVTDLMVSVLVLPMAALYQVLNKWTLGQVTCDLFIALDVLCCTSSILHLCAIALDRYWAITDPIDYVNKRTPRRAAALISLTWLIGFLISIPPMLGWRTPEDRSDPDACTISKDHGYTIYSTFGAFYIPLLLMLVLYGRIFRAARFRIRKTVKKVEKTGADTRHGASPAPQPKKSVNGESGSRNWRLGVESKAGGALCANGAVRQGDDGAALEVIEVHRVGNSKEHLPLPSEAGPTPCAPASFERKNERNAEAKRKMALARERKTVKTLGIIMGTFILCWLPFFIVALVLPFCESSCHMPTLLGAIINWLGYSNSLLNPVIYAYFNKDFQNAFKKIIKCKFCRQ
The test is classed as functional, cell-based.

Test [7] deals with Sodium-dependent noradrenaline transporter (Homo sapiens, UniProt P23975).
Test [8] concerns the target 3',5'-cyclic-AMP phosphodiesterase 4D (Homo sapiens, UniProt Q08499). It is filed as functional.
Test [9] deals with Sodium-dependent dopamine transporter (Homo sapiens, UniProt Q01959).
Test [10] deals with T4, Equilibrative nucleoside transporter 1 (Homo sapiens, UniProt Q99808).
T4 sequence (Q99808 whole entry): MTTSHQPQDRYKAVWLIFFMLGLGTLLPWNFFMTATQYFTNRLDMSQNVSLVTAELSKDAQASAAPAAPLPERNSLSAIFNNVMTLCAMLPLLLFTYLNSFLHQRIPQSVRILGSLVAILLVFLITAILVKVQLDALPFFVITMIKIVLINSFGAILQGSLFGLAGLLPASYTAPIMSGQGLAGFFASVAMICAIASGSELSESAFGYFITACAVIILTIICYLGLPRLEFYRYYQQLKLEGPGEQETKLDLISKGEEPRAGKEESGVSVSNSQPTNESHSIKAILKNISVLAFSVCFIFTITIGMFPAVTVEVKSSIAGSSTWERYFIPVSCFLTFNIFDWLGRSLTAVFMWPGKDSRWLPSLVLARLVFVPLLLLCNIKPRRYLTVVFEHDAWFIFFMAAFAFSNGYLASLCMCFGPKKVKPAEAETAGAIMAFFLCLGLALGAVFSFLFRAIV

In test [11] the target is Voltage-gated inwardly rectifying potassium channel KCNH2 (Homo sapiens, UniProt Q12809). The test is classed as functional. The settings on record: read-out: AC50.

As usually defined, the AC50 is the concentration at which the activity in the assay is half-maximal.
Also: assay procedure not described here.

Sodium-dependent dopamine transporter, sequence (Q01959 whole entry): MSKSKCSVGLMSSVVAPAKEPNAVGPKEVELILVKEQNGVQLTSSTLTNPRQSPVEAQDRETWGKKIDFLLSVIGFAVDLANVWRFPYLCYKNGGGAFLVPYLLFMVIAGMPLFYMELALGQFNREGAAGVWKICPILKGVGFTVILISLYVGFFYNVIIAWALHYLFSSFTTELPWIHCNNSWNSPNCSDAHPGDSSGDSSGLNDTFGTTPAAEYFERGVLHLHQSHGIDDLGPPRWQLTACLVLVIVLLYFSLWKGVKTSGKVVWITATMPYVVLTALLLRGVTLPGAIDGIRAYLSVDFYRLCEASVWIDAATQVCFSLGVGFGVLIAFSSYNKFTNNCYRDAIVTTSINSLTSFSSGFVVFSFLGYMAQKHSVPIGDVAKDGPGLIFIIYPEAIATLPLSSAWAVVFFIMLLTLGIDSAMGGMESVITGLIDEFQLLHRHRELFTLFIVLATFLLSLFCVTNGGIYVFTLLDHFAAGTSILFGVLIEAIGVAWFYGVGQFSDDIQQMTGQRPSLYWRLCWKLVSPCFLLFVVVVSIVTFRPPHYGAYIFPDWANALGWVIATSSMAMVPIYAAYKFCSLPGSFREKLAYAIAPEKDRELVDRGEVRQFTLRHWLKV
3',5'-cyclic-AMP phosphodiesterase 4D, sequence (Q08499 whole entry): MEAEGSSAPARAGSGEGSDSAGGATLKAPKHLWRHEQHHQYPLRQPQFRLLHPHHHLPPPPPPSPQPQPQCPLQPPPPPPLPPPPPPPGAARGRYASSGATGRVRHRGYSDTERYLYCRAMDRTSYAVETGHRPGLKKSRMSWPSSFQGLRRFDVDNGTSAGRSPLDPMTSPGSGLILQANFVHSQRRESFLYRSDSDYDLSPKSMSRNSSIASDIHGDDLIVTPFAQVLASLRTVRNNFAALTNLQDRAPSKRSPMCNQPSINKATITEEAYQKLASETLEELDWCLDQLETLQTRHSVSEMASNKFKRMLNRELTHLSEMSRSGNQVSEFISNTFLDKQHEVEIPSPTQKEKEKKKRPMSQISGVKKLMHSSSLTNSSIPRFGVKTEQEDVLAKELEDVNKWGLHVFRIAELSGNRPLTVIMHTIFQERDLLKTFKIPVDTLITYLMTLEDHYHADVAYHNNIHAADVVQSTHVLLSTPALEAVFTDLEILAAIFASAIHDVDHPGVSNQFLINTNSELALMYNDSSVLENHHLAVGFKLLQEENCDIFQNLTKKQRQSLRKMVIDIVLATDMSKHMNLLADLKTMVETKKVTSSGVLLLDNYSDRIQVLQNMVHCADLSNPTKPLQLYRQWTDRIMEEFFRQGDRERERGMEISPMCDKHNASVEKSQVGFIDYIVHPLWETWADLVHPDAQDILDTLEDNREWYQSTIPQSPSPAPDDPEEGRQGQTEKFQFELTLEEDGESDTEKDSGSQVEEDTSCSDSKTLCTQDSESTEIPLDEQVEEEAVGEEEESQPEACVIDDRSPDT
Voltage-gated inwardly rectifying potassium channel KCNH2, sequence (Q12809 whole entry): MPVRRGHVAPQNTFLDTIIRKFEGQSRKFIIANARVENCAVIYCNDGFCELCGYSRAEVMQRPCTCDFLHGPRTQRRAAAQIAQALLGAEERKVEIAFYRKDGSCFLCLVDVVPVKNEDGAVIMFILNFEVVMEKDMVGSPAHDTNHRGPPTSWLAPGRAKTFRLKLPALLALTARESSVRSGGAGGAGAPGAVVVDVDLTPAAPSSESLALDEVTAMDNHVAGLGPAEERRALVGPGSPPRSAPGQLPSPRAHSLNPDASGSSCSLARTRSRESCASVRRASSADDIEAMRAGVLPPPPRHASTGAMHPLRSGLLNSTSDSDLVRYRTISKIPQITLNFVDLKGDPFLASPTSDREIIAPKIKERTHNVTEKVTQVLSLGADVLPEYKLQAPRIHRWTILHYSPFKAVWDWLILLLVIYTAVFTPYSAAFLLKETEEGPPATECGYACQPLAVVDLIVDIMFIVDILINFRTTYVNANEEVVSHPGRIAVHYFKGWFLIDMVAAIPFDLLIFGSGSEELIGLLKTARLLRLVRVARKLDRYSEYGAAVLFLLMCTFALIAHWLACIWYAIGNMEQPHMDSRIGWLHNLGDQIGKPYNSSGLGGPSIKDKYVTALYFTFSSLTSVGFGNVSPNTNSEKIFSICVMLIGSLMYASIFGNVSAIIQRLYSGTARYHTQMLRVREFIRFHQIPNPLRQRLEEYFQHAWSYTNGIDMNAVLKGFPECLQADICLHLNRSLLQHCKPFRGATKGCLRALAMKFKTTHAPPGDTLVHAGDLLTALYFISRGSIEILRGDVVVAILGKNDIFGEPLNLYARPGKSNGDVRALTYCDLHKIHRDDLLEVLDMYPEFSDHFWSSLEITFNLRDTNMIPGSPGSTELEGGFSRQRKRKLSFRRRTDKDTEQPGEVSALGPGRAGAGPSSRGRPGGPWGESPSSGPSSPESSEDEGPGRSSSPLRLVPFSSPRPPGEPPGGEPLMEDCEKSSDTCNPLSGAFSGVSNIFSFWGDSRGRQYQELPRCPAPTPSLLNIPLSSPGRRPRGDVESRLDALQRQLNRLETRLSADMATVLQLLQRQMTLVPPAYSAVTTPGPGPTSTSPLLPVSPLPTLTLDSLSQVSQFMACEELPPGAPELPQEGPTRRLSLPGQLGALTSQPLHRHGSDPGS
D(3) dopamine receptor, sequence (P35462 whole entry): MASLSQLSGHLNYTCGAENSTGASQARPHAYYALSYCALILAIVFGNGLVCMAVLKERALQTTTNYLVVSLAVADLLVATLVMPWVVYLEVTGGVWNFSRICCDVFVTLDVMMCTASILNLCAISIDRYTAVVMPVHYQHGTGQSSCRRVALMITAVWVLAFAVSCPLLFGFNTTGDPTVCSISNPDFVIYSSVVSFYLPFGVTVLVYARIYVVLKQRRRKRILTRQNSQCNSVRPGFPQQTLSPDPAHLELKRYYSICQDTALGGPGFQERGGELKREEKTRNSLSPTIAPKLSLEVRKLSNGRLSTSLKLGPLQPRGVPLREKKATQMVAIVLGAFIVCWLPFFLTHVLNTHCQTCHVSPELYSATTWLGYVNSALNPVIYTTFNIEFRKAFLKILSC
cGMP-inhibited 3',5'-cyclic phosphodiesterase 3A, sequence (Q14432 whole entry): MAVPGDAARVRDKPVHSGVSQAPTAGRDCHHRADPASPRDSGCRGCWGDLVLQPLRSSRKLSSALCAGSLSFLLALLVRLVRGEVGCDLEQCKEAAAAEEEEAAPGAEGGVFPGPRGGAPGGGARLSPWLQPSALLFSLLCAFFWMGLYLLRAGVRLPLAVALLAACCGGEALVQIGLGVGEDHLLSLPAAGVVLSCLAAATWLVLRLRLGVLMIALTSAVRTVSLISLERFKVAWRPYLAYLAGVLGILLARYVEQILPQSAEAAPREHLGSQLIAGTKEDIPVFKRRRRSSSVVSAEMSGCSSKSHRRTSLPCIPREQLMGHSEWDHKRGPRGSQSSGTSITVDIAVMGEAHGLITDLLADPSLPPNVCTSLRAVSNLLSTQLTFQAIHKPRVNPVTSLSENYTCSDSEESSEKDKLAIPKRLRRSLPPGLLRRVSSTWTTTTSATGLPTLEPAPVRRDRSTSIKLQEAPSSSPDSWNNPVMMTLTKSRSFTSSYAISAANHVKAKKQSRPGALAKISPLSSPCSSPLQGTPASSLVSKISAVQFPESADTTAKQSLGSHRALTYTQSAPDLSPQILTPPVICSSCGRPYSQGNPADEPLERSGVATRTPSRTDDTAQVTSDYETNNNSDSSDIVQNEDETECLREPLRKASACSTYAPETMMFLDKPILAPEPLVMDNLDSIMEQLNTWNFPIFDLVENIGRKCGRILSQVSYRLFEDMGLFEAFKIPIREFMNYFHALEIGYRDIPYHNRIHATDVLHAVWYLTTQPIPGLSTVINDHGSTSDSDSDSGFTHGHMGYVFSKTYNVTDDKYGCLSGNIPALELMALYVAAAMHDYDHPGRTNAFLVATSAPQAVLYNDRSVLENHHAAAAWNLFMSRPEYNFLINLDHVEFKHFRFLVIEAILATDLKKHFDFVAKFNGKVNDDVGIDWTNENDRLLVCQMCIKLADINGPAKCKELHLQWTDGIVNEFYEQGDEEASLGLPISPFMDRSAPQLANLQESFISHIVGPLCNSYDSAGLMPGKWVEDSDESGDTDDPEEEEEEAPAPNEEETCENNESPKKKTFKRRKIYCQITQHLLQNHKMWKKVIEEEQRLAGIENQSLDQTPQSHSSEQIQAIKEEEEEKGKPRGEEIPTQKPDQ
Growth hormone secretagogue receptor type 1, sequence (Q92847 whole entry): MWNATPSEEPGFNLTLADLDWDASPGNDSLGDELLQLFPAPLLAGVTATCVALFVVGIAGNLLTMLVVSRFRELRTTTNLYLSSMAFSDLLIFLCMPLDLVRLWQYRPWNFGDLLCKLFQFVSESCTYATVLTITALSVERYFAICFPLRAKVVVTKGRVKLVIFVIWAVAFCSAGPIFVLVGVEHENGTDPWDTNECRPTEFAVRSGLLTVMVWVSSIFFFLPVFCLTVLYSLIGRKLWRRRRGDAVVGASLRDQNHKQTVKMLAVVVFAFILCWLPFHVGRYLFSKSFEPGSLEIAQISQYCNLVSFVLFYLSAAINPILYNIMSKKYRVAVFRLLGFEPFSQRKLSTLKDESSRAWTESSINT
Adenosine receptor A2a, sequence (P29274 whole entry): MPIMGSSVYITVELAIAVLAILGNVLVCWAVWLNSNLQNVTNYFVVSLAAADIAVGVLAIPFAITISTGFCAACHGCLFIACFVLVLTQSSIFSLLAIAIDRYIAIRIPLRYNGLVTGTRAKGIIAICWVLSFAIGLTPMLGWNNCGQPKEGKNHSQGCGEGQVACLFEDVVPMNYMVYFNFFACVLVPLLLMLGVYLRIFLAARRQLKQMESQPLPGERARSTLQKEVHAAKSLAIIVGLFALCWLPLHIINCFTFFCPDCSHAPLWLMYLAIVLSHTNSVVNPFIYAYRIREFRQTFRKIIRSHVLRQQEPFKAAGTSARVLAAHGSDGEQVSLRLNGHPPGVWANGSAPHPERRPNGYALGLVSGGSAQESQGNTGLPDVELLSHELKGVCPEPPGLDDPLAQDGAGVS

On to `O=C(O)c1cc(-c2ccc(F)cc2F)ccc1O` [DIFLUNISAL], for which the AC50 was above 10 µM in test [1]; above 30 µM in test [2]; above 30 µM in test [3]; above 10 µM on Adenosine receptor A2a; above 30 µM in test [4]; above 30 µM on D(3) dopamine receptor. The AC50 in [5] is above 10 µM; in [6], above 10 µM; in [7] it was above 10 µM; in [8], above 30 µM; in test [9], above 10 µM; at Motilin receptor, above 10 µM. The AC50 was above 10 µM in [10] and above 30 µM in [11].
As for `CC(C)(C(=O)c1cccnc1)c1cccnc1` [METYRAPONE], the AC50 in [1] was above 10 µM; in test [2], above 30 µM; in test [3], above 30 µM; at Adenosine receptor A2a it was above 10 µM; in test [4], above 30 µM; at D(3) dopamine receptor, above 30 µM. Moreover, the AC50 in test [5] is above 10 µM; in test [6], above 10 µM; in test [7] it was above 10 µM; in test [8], above 30 µM; in [9], above 10 µM; at Motilin receptor, above 10 µM. For the same compound, the values for the AC50 in test [10] and in [11] were above 10 µM and above 30 µM, respectively.
As for `NC[C@H]1O[C@H](O[C@H]2[C@H](O)[C@@H](O[C@H]3O[C@H](CO)[C@@H](O)[C@H](N)[C@H]3O)[C@H](N)C[C@@H]2N)[C@H](O)[C@@H](O)[C@@H]1O` [KANAMYCIN], the AC50 is above 10 µM in test [1]; above 30 µM in test [2]; above 30 µM in [3]; above 10 µM at Adenosine receptor A2a; above 30 µM in test [4]; above 30 µM on D(3) dopamine receptor. For the same compound, the concentration at half-maximal activity (AC50) was above 10 µM in test [5]; above 10 µM in test [6]; above 10 µM in test [7]; above 30 µM in test [8]; above 10 µM in test [9]; above 10 µM at Motilin receptor. In addition, the AC50 in [10] is above 10 µM; in [11], above 30 µM.
For `CC[C@H](C)C(=O)O[C@H]1C[C@H](O)C=C2C=C[C@H](C)[C@H](CC[C@@H](O)C[C@@H](O)CC(=O)O)[C@H]21` [PRAVASTATIN], the AC50 (in [1]; in test [2]; in test [3]; at Adenosine receptor A2a; in [4]; at D(3) dopamine receptor) was above 30 µM each time. The AC50 (in [5]; in test [6]; in test [7]; in [8]; in test [9]; at Motilin receptor) was above 30 µM throughout. Moreover, the AC50 in test [10] and in test [11] was above 30 µM throughout.
